Consider three compounds from patent US20240390499A1, “METHOD” (OSLO UNIVERSITETSSYKEHUS HF, priority 2021, published 2024).

The subject of one data set is LN18 cells. The experiment in a line: MTT cell viability assay, DZ325 + cercosporin (FIG. 1). It is filed as cell-based, human. As to the method:
FIG. 1—Cell viability of LN18 cells: Compound DZ325+cercosporin.
(§1) The efficacy of the chemiluminescent compounds DZ325 and EK297 was tested in cell cultures of human glioblastoma multiforme cell lines (U87, T98G, M059K and LN-18).
(§2) The cells were inoculated in 96-well plates and left to attach overnight at 37° C. in a 5% CO2, humidified atmosphere. Subsequently the cells were incubated with (i) the photosensitizer (cercosporin) or the photosensitizer precursor (5-ALA, for the generation of the photosensitizer PpIX); and (ii) the compound at the appropriate concentration. In the case of 5-ALA, its introduction to the cell culture preceded that of the chemiluminescent compound by 1 hour to ensure adequate PpIX production. In the case of cercosporin, it was administered at the same time as the chemiluminescent compound. […]
(§3) 24 hours from the introduction of the chemiluminescent compounds to the cells, the cell media was removed and replaced with 100 μL of media containing 0.5 mg/mL thiazolyl blue salts for the performance of a standard MTT viability assay. […] The endpoint absorbance measurement was made at 561 nm. […] The experimental cell viability of the combined treatment (photosensitizer+chemiluminescent compound) was compared to the theoretical additive treatment of the photosensitizer+chemiluminescent compound which was calculated as follows: […]

The next data set has as its system M059K cells. The experiment in a line: MTT cell viability assay, DZ325 + cercosporin (FIG. 2). The format is cell-based, human. Here is the method:
FIG. 2—Cell viability of M059K cells: Compound DZ325+cercosporin.
as §1, §2, §3

Data set [1] deals with human glioblastoma multiforme cell lines (U87, T98G, M059K and LN-18). The data set can be described thus: MTT cell viability assay, chemiluminescent compound plus photosensitizer (FIG. 3). The format is cell-based. As to the method:
as §1
The cells were inoculated in 96-well plates and left to attach overnight at 37° C. in a 5% CO2, humidified atmosphere. Subsequently the cells were incubated with (i) the photosensitizer (cercosporin) or the photosensitizer precursor (5-ALA, for the generation of the photosensitizer PpIX); and (ii) the compound at the appropriate concentration. In the case of 5-ALA, its introduction to the cell culture preceded that of the chemiluminescent compound by 1 hour to ensure adequate PpIX production. In the case of cercosporin, it was administered at the same time as the chemiluminescent compound.
The chemiluminescent compounds were prepared as 50 mM stock solutions in DMSO (or 1-methyl-2-pyrrolidone) and diluted in cell media to their final concentrations. Cercosporin was prepared as a 4 mM solution in DMSO and appropriately diluted in cell media. 5-ALA was made to its final concentration in Optimem. In the case of the luminol-based compound (DZ325), Cu was in some cases added to the cell media in the form of CuSO4 at a final concentration of 100 μM.
24 hours from the introduction of the chemiluminescent compounds to the cells, the cell media was removed and replaced with 100 μL of media containing 0.5 mg/mL thiazolyl blue salts for the performance of a standard MTT viability assay. The MTT containing medium was left to incubate for 1 to 3 hours and then removed and replaced with 100 μL DMSO. The endpoint absorbance measurement was made at 561 nm. Media only controls were used as 100% cell viability controls. The experimental cell viability of the combined treatment (photosensitizer+chemiluminescent compound) was compared to the theoretical additive treatment of the photosensitizer+chemiluminescent compound which was calculated as follows:
In each figure, one example of synergy is highlighted. […] Calculated cell viability is determined according to the following equation (in which “PS”=photosensitizer; “CL”=chemiluminescent agent): […]

Consider `Cc1ccc(S(=O)(=O)NCCCNc2cccc3c(=O)[nH][nH]c(=O)c23)cc1` [DZ325, N-(3-((1,4-dioxo-1,2,3,4-tetrahydrophthalazin-5-yl)amino)propyl)-4-methylbenzenesulfonamide], for which the “synergy between chemiluminescent compound and photosensitizer” value in the data set with LN18 cells and in the data set with M059K cells was “synergy” in each case.
Take `Cc1ccc(S(=O)(=O)N2CCN(C(=O)c3cc(Br)c(OC(=O)c4c5ccccc5[n+](C)c5ccccc45)c(Br)c3)CC2)cc1.O=S(=O)([O-])C(F)(F)F` [EK297, 9-((2,6-dibromo-4-(4-tosylpiperazine-1-carbonyl)phenoxy)carbonyl)-10-methylacridin-10-ium trifluoromethanesulfonate]: the “experimental cell viability of combined treatment” value in data set [1] (3 μM cercosporin+400 μM EK297, MTT 24 hours, FIG. 3) worked out at 21.5%. The “calculated cell viability (theoretical additive)” value in data set [1] (3 μM cercosporin+400 μM EK297, calculated from single-agent viabilities) is given as 59.5%. Further, the “synergy between chemiluminescent compound and photosensitizer” value in data set [1] (EK297 with cercosporin, experimental vs calculated viability) is listed as “cytotoxic synergy”. For the same compound, the viability at 400 µM in data set [1] (Homo sapiens, 400 μM EK297 alone, MTT 24 hours, FIG. 3, cell line not stated, read-out: cell viability (printed as 'toxicity')) turned out to be 74.5%.
Turning to `COc1c(CC(C)O)c2c3c(CC(C)O)c(OC)c(=O)c4c(O)cc5c(c6c(cc(O)c(c1=O)c62)OCO5)c43` (stereo not shown) [cercosporin, reference compound], the viability at 3 µM in data set [1] (Homo sapiens, 24 h, read-out: cell viability) turned out to be 80%.
